Bounds are passed on as bounds.

The record followed here is BindingDB's records for doi:10.1021/jm00017a004 (Centre De Recherche Pierre Fabre, 1995).

The target in the experiment is Squalene monooxygenase (Sus scrofa). Description: In vitro inhibitory activity against pig liver microsomal squalene epoxidase. On the technique in general: Liver microsomes are vesicles of endoplasmic reticulum, rich in cytochrome P450 enzymes.
As usually defined, the IC50 is the midpoint of a concentration-inhibition curve. A low value points to higher potency. Consider `CCN(C/C=C/C#CC(C)(C)C)Cc1cccc(OC[Si](C)(C)c2ccc(C(=O)C(F)(F)F)cc2)c1` [1-{4-[(3-{[((E)-6,6-Dimethyl-hept-2-en-4-ynyl)-ethyl-amino]-methyl}-phenoxymethyl)-dimethyl-silanyl]-phenyl}-2,2,2-trifluoro-ethanone], for which the IC50 stood at 5 µM. Molecule `CCN(C/C=C/C#CC(C)(C)C)Cc1cccc(OC[Si](C)(C)c2ccc(C=O)cc2)c1` [4-[(3-{[((E)-6,6-Dimethyl-hept-2-en-4-ynyl)-ethyl-amino]-methyl}-phenoxymethyl)-dimethyl-silanyl]-benzaldehyde] displayed a concentration for half-maximal inhibition (IC50) of 0.1 µM. Consider `CCN(C/C=C/C#CC(C)(C)C)Cc1cccc(OC[Si](C)(C)c2ccc(C(N)=O)cc2)c1` [4-[(3-{[((E)-6,6-Dimethyl-hept-2-en-4-ynyl)-ethyl-amino]-methyl}-phenoxymethyl)-dimethyl-silanyl]-benzamide], for which the IC50 is 5 µM. In turn, `CCN(C/C=C/C#CC(C)(C)C)Cc1cccc(OC[Si](C)(C)c2ccc(S)cc2)c1` [4-[(3-{[((E)-6,6-Dimethyl-hept-2-en-4-ynyl)-ethyl-amino]-methyl}-phenoxymethyl)-dimethyl-silanyl]-benzenethiol] displayed an IC50 of 8 µM. For the molecule `CCN(C/C=C/C#CC(C)(C)C)Cc1cccc(OC[Si](C)(C)c2ccc(O)cc2)c1` [4-[(3-{[((E)-6,6-Dimethyl-hept-2-en-4-ynyl)-ethyl-amino]-methyl}-phenoxymethyl)-dimethyl-silanyl]-phenol], the IC50 came out at 8 µM.

As for `CCN(C/C=C/C#CC(C)(C)C)Cc1cccc(OC[Si](C)(C)c2ccc(Br)cc2)c1` [(3-{[(4-Bromo-phenyl)-dimethyl-silanyl]-methoxy}-benzyl)-((E)-6,6-dimethyl-hept-2-en-4-ynyl)-ethyl-amine], the IC50 was 0.21 µM.

In turn, `CCN(C/C=C/C#CC(C)(C)C)Cc1cccc(OC[Si](C)(C)c2ccc(Cl)cc2)c1` [(3-{[(4-Chloro-phenyl)-dimethyl-silanyl]-methoxy}-benzyl)-((E)-6,6-dimethyl-hept-2-en-4-ynyl)-ethyl-amine] registered an IC50 of 0.4 µM. As to `CCN(C/C=C/C#CC(C)(C)C)Cc1cccc(OC[Si](C)(C)c2ccccc2-c2ccsc2)c1` [((E)-6,6-Dimethyl-hept-2-en-4-ynyl)-(3-{[dimethyl-(2-thiophen-3-yl-phenyl)-silanyl]-methoxy}-benzyl)-ethyl-amine], the IC50 was determined as 10 µM. With `CCN(C/C=C/C#CC(C)(C)C)Cc1cccc(OC[Si](C)(C)c2ccccc2C(F)(F)F)c1` [((E)-6,6-Dimethyl-hept-2-en-4-ynyl)-(3-{[dimethyl-(2-trifluoromethyl-phenyl)-silanyl]-methoxy}-benzyl)-ethyl-amine], half-maximal inhibition (IC50) required 0.07 µM. Then `C=Cc1ccc([Si](C)(C)COc2cccc(CN(CC)C/C=C/C#CC(C)(C)C)c2)cc1` [((E)-6,6-Dimethyl-hept-2-en-4-ynyl)-(3-{[dimethyl-(4-vinyl-phenyl)-silanyl]-methoxy}-benzyl)-ethyl-amine], with 0.07 µM. Regarding `CCN(C/C=C/C#CC(C)(C)C)Cc1cccc(OC[Si](C)(C)c2ccc(F)cc2)c1` [((E)-6,6-Dimethyl-hept-2-en-4-ynyl)-ethyl-(3-{[(4-fluoro-phenyl)-dimethyl-silanyl]-methoxy}-benzyl)-amine], the concentration for half-maximal inhibition (IC50) was found to be 0.06 µM. On to `CCN(C/C=C/C#CC(C)(C)C)Cc1cccc(OC[Si](C)(C)c2ccc(OC)cc2)c1` [((E)-6,6-Dimethyl-hept-2-en-4-ynyl)-ethyl-(3-{[(4-methoxy-phenyl)-dimethyl-silanyl]-methoxy}-benzyl)-amine], for which half-maximal inhibition (IC50) was put at 0.87 µM.

With `CCN(C/C=C/C#CC(C)(C)C)Cc1cccc(OC[Si](C)(C)c2cccc(C)c2)c1` [((E)-6,6-Dimethyl-hept-2-en-4-ynyl)-{3-[(dimethyl-m-tolyl-silanyl)-methoxy]-benzyl}-ethyl-amine], the IC50 worked out at 3 µM.

The molecule `CCN(C/C=C/C#CC(C)(C)C)Cc1cccc(OC[Si](C)(C)c2ccc(C)cc2)c1` [((E)-6,6-Dimethyl-hept-2-en-4-ynyl)-{3-[(dimethyl-p-tolyl-silanyl)-methoxy]-benzyl}-ethyl-amine] displayed an IC50 of 0.12 µM. On to `CCN(C/C=C/C#CC(C)(C)C)Cc1cccc(OC[Si](C)(C)CCc2ccccc2)c1` [((E)-6,6-Dimethyl-hept-2-en-4-ynyl)-{3-[(dimethyl-phenethyl-silanyl)-methoxy]-benzyl}-ethyl-amine], for which the IC50 is greater than 10 µM. `CCN(C/C=C/C#CC(C)(C)C)Cc1cccc(OC[Si](C)(C)Cc2ccccc2)c1` [{3-[(Benzyl-dimethyl-silanyl)-methoxy]-benzyl}-((E)-6,6-dimethyl-hept-2-en-4-ynyl)-ethyl-amine]: the IC50 is 0.13 µM.

As for `CCN(C/C=C/C#CC(C)(C)C)Cc1cccc(OC[Si](C)(C)C2CCCCC2)c1` [{3-[(Cyclohexyl-dimethyl-silanyl)-methoxy]-benzyl}-((E)-6,6-dimethyl-hept-2-en-4-ynyl)-ethyl-amine], the midpoint of inhibition, the IC50, lay at 20 µM. Then `CCN(CC#CC#CC(C)(C)OC)Cc1cccc(OC[Si](C)(C)c2ccccc2C)c1` [{3-[(Dimethyl-o-tolyl-silanyl)-methoxy]-benzyl}-ethyl-(6-methoxy-6-methyl-hepta-2,4-diynyl)-amine], with 0.07 µM.
